Results: the supplement of paper PMC10307832

Columns and labels:
Assay in all cases: relative viability (nuclei count vs DMSO), 5 days (fraction); higher = more cells survive
[1] = tested on: NCI-H1651
How it was run: (§1)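 Five library-drug doses in √10 steps were combined with a fixed anchor-drug dose, or a single drug was given alone, by pin tool to lung cancer cell lines in 1536-well plates the day after seeding. Nuclei were stained and counted after 5 days. Relative viability is the nuclei count in treated wells over that in vehicle wells, taken as the median of duplicate plates.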

[2] = tested on: RERF-LC-KJ
How it was run: as §1

[3] = tested on: PC-14
How it was run: as §1

[4] = tested on: NCI-H661
How it was run: as §1

[5] = tested on: NCI-H3122
How it was run: as §1

[6] = tested on: NCI-H460
How it was run: as §1

[7] = tested on: NCI-H727
How it was run: as §1

[8] = tested on: NCI-H520
How it was run: as §1

[9] = tested on: SK-MES-1
How it was run: as §1

[10] = tested on: NCI-H522
How it was run: as §1

[11] = tested on: SW 900
How it was run: as §1

[12] = tested on: LCLC-103H
How it was run: as §1

[13] = tested on: NCI-H1355
How it was run: as §1

[14] = tested on: NCI-H2347
How it was run: as §1

[15] = tested on: NCI-H1755
How it was run: as §1

[16] = tested on: NCI-H322M
How it was run: as §1

[17] = tested on: LXF-289
How it was run: as §1

[18] = tested on: NCI-H1915
How it was run: as §1

[19] = tested on: NCI-H441
How it was run: as §1

[20] = tested on: NCI-H596
How it was run: as §1

O=c1cc(-c2cccc3c2Sc2ccccc2S3)oc(N2CCOCC2)c1 + O=C(CCCCCCC(=O)Nc1ccccc1)NO [Vorinostat] (partner 1 µM)
relative viability ([1]; first compound 0.08 µM): 0.585
relative viability ([1]; first compound 0.253 µM): 0.638
relative viability ([1]; first compound 0.8 µM): 0.571
relative viability ([1]; first compound 2.53 µM): 0.519
relative viability ([1]; first compound 8 µM): 0.578
relative viability ([2]; first compound 0.08 µM): 0.558
relative viability ([2]; first compound 0.253 µM): 0.64
relative viability ([2]; first compound 0.8 µM): 0.713
relative viability ([2]; first compound 2.53 µM): 0.655
relative viability ([2]; first compound 8 µM): 0.666
relative viability ([3]; first compound 0.08 µM): 0.734
relative viability ([3]; first compound 0.253 µM): 0.879
relative viability ([3]; first compound 0.8 µM): 0.685
relative viability ([3]; first compound 2.53 µM): 0.628
relative viability ([3]; first compound 8 µM): 0.701
relative viability ([4]; first compound 0.08 µM): 0.801
relative viability ([4]; first compound 0.253 µM): 0.808
relative viability ([4]; first compound 0.8 µM): 0.807
relative viability ([4]; first compound 2.53 µM): 0.734
relative viability ([4]; first compound 8 µM): 0.789
relative viability ([5]; first compound 0.08 µM): 0.99
relative viability ([5]; first compound 0.253 µM): 1.2
relative viability ([5]; first compound 0.8 µM): 1.09
relative viability ([5]; first compound 2.53 µM): 0.93
relative viability ([5]; first compound 8 µM): 1.05
relative viability ([6]; first compound 0.08 µM): 0.892
relative viability ([6]; first compound 0.253 µM): 1.49
relative viability ([6]; first compound 0.8 µM): 0.772
relative viability ([6]; first compound 2.53 µM): 0.692
relative viability ([6]; first compound 8 µM): 1.04
relative viability ([7]; first compound 0.08 µM): 1.01
relative viability ([7]; first compound 0.253 µM): 1.29
relative viability ([7]; first compound 2.53 µM): 1.09
relative viability ([7]; first compound 8 µM): 1.24
relative viability ([8]; first compound 0.08 µM): 0.704
relative viability ([8]; first compound 0.253 µM): 0.856
relative viability ([8]; first compound 0.8 µM): 0.741
relative viability ([8]; first compound 2.53 µM): 0.787
relative viability ([8]; first compound 8 µM): 0.648
relative viability ([9]; first compound 0.08 µM): 1.15
relative viability ([9]; first compound 0.253 µM): 1.23
relative viability ([9]; first compound 0.8 µM): 1.01
relative viability ([9]; first compound 2.53 µM): 0.975
relative viability ([9]; first compound 8 µM): 0.939
relative viability ([10]; first compound 0.08 µM): 0.952
relative viability ([10]; first compound 0.253 µM): 0.909
relative viability ([10]; first compound 0.8 µM): 0.811
relative viability ([10]; first compound 2.53 µM): 0.736
relative viability ([10]; first compound 8 µM): 1
relative viability ([11]; first compound 0.253 µM): 0.529
relative viability ([11]; first compound 0.8 µM): 0.493
relative viability ([11]; first compound 2.53 µM): 0.427
relative viability ([11]; first compound 8 µM): 0.393
relative viability ([12]; first compound 0.08 µM): 0.757
relative viability ([12]; first compound 0.253 µM): 0.814
relative viability ([12]; first compound 0.8 µM): 0.66
relative viability ([12]; first compound 2.53 µM): 0.727
relative viability ([12]; first compound 8 µM): 0.864
relative viability ([13]; first compound 0.08 µM): 0.628
relative viability ([13]; first compound 0.253 µM): 0.709
relative viability ([13]; first compound 0.8 µM): 0.526
relative viability ([13]; first compound 2.53 µM): 0.654
relative viability ([13]; first compound 8 µM): 0.584
relative viability ([14]; first compound 0.08 µM): 0.606
relative viability ([14]; first compound 0.253 µM): 0.609
relative viability ([14]; first compound 0.8 µM): 0.548
relative viability ([14]; first compound 2.53 µM): 0.499
relative viability ([14]; first compound 8 µM): 0.46
relative viability ([15]; first compound 0.08 µM): 0.734
relative viability ([15]; first compound 0.253 µM): 0.797
relative viability ([15]; first compound 0.8 µM): 0.795
relative viability ([15]; first compound 2.53 µM): 0.709
relative viability ([15]; first compound 8 µM): 0.8
relative viability ([16]; first compound 0.08 µM): 0.839
relative viability ([16]; first compound 0.253 µM): 1.01
relative viability ([16]; first compound 0.8 µM): 0.948
relative viability ([16]; first compound 2.53 µM): 0.825
relative viability ([16]; first compound 8 µM): 0.867
relative viability ([17]; first compound 0.08 µM): 0.902
relative viability ([17]; first compound 0.253 µM): 0.784
relative viability ([17]; first compound 0.8 µM): 0.782
relative viability ([17]; first compound 2.53 µM): 0.661
relative viability ([17]; first compound 8 µM): 0.819
relative viability ([18]; first compound 0.08 µM): 0.549
relative viability ([18]; first compound 0.253 µM): 0.492
relative viability ([18]; first compound 0.8 µM): 0.592
relative viability ([18]; first compound 2.53 µM): 0.517
relative viability ([18]; first compound 8 µM): 0.562
relative viability ([19]; first compound 0.08 µM): 0.921
relative viability ([19]; first compound 0.253 µM): 1.01
relative viability ([19]; first compound 0.8 µM): 1.14
relative viability ([19]; first compound 2.53 µM): 0.838
relative viability ([19]; first compound 8 µM): 0.935
relative viability ([20]; first compound 0.08 µM): 0.51
relative viability ([20]; first compound 0.253 µM): 0.749
relative viability ([20]; first compound 0.8 µM): 0.585
relative viability ([20]; first compound 2.53 µM): 0.575
relative viability ([20]; first compound 8 µM): 0.717

COc1nc(C)cnc1NS(=O)(=O)c1cccnc1-c1ccc(-c2nnco2)cc1 [Zibotentan] + Cc1cc(Nc2cc(N3CCN(C)CC3)nc(Sc3ccc(NC(=O)C4CC4)cc3)n2)n[nH]1 [Tozasertib] (partner 0.1 µM)
relative viability ([1]; first compound 0.08 µM): 0.678
relative viability ([1]; first compound 0.253 µM): 0.552
relative viability ([1]; first compound 0.8 µM): 0.767
relative viability ([1]; first compound 2.53 µM): 0.717
relative viability ([2]; first compound 0.08 µM): 0.479
relative viability ([2]; first compound 0.8 µM): 0.562
relative viability ([2]; first compound 2.53 µM): 0.493
relative viability ([3]; first compound 0.08 µM): 0.555
relative viability ([3]; first compound 0.253 µM): 0.527
relative viability ([3]; first compound 0.8 µM): 0.583
relative viability ([3]; first compound 2.53 µM): 0.567
relative viability ([4]; first compound 0.08 µM): 0.369
relative viability ([4]; first compound 0.253 µM): 0.334
relative viability ([4]; first compound 0.8 µM): 0.347
relative viability ([4]; first compound 2.53 µM): 0.364
relative viability ([5]; first compound 0.08 µM): 0.399
relative viability ([5]; first compound 0.8 µM): 0.361
relative viability ([5]; first compound 2.53 µM): 0.413
relative viability ([6]; first compound 0.08 µM): 0.625
relative viability ([6]; first compound 0.253 µM): 0.158
relative viability ([6]; first compound 0.8 µM): 0.106
relative viability ([6]; first compound 2.53 µM): 0.385
relative viability ([7]; first compound 0.08 µM): 0.692
relative viability ([7]; first compound 0.253 µM): 0.624
relative viability ([7]; first compound 0.8 µM): 0.629
relative viability ([7]; first compound 2.53 µM): 0.648
relative viability ([8]; first compound 0.08 µM): 0.431
relative viability ([8]; first compound 0.253 µM): 0.479
relative viability ([8]; first compound 0.8 µM): 0.441
relative viability ([8]; first compound 2.53 µM): 0.442
relative viability ([9]; first compound 0.08 µM): 0.999
relative viability ([9]; first compound 0.253 µM): 0.809
relative viability ([9]; first compound 0.8 µM): 0.874
relative viability ([9]; first compound 2.53 µM): 0.877
relative viability ([10]; first compound 0.08 µM): 0.573
relative viability ([10]; first compound 0.253 µM): 0.606
relative viability ([10]; first compound 0.8 µM): 0.599
relative viability ([10]; first compound 2.53 µM): 0.568
relative viability ([11]; first compound 0.08 µM): 0.553
relative viability ([11]; first compound 0.253 µM): 0.549
relative viability ([11]; first compound 0.8 µM): 0.617
relative viability ([11]; first compound 2.53 µM): 0.586
relative viability ([12]; first compound 0.08 µM): 0.451
relative viability ([12]; first compound 0.253 µM): 0.509
relative viability ([12]; first compound 0.8 µM): 0.412
relative viability ([12]; first compound 2.53 µM): 0.478
relative viability ([13]; first compound 0.08 µM): 0.626
relative viability ([13]; first compound 0.253 µM): 0.537
relative viability ([13]; first compound 0.8 µM): 0.55
relative viability ([13]; first compound 2.53 µM): 0.565
relative viability ([14]; first compound 0.253 µM): 0.49
relative viability ([14]; first compound 0.8 µM): 0.432
relative viability ([14]; first compound 2.53 µM): 0.537
relative viability ([15]; first compound 0.08 µM): 0.475
relative viability ([15]; first compound 0.253 µM): 0.58
relative viability ([15]; first compound 0.8 µM): 0.602
relative viability ([15]; first compound 2.53 µM): 0.657
relative viability ([16]; first compound 0.08 µM): 0.464
relative viability ([16]; first compound 0.253 µM): 0.479
relative viability ([16]; first compound 0.8 µM): 0.496
relative viability ([16]; first compound 2.53 µM): 0.534
relative viability ([17]; first compound 0.08 µM): 0.212
relative viability ([17]; first compound 0.253 µM): 0.161
relative viability ([17]; first compound 0.8 µM): 0.227
relative viability ([17]; first compound 2.53 µM): 0.225
relative viability ([18]; first compound 0.08 µM): 0.453
relative viability ([18]; first compound 0.253 µM): 0.409
relative viability ([18]; first compound 0.8 µM): 0.428
relative viability ([18]; first compound 2.53 µM): 0.417
relative viability ([19]; first compound 0.08 µM): 0.633
relative viability ([19]; first compound 0.253 µM): 0.545
relative viability ([19]; first compound 0.8 µM): 0.728
relative viability ([19]; first compound 2.53 µM): 0.592
relative viability ([20]; first compound 0.08 µM): 0.883
relative viability ([20]; first compound 0.253 µM): 0.846
relative viability ([20]; first compound 0.8 µM): 0.684
relative viability ([20]; first compound 2.53 µM): 1.07
